Reference: patent publication US4025623A, “4'-Epi-6'-hydroxyadriamycin and method of use” (priority 1974, dated 1977)
Converted amounts (≈) assume the structure as drawn. Where two headings read alike, the source gives them in different places.

Experiments:
HeLa cells = HeLa cells cloning efficiency (in vitro); format: cell-based; details: for IC50: Homo sapiens, HeLa, read-out: ID50 HeLa cells cloning efficiency
Experimental: (1) HeLa cells were exposed to each of compounds (I) and (V) for 2, 8 and 24 hours, after which the compounds were removed and the cells seeded on […]. Falcon plastic dishes (200 cells/plate) in a growth medium. The number of colonies was ascertained microscopically 5 days later.
(§1) The test compounds were dissolved in distilled water and then diluted in culture medium.
(§2) The results are reported in Table I as ID50 (Inhibiting Dose 50%), calculated on dose-effects lines.

[1] = test system: Moloney Sarcoma virus (MSV); assay: MSV foci formation in mouse embryo fibroblasts (in vitro); format: cell-based; details: Fibroblast, read-out: ID50 MSV foci formation
Experimental: (§3) (2) Mouse embryo fibroblasts (MEF) were plated on 35 mm. Falcon plastic dishes, infected 24 hours later with Moloney Sarcoma virus (MSV), and treated for 3 days with different concentrations of the compounds of the invention. The number of foci of transformed cells was microscopically ascertained 5 days after the infection. Uninfected MEF were similarly treated, and at the end of the test, the cells were counted in a hemocytometer. In all the tests, the cells were incubated in a 5% CO2 incubator at 37° C.
as §1, §2

[2] = MEF proliferation (uninfected mouse embryo fibroblasts, in vitro); format: cell-based; details: time of exposure 72 hours, read-out: ID50 MEF proliferation
Experimental: as §3, §1

ascites Sarcoma 180 = assay: Antitumor activity on ascites Sarcoma 180 in CD 1 mice; format: in vivo; details: for LTS, Long Term survivors: after 60 days; for T/C, median survival time as % over controls: 1 treatment i.p. at day 1
Experimental: (§4) The antitumor activity of the compounds of the invention was tested on ascites Sarcoma 180. 3 month old CD 1 mice were used. Sarcoma 180 ascites cells were inoculated intraperitoneally (10^6 cells/mouse).
(§5) The test compounds were dissolved in distilled water, then diluted in Ringer's solution, and administered intraperitoneally 1 day after the tumor implant (10 ml./kg. of body weight). The toxicity of the test compounds was evaluated by macroscopic autoptic examination, mainly in terms of reduction in spleen size. The comparison of the effectiveness of the tested compounds is based on the maximum increase in median survival time, as compared to untreated controls, over the dose range used. The number of Long Term Survivors (LTS) refers to tumor-free mice at the end of the test (60 days).

[3] = Toxicity in Sarcoma 180 bearing CD 1 mice (toxic deaths, autopsy); format: in vivo
Experimental: as §4, §5

| Compound | IC50 (HeLa cells; 2 h) [µg/mL] | IC50 (HeLa cells; 8 h) [µg/mL] | IC50 (HeLa cells; 24 h) [µg/mL] | IC50 ([1]; 72 h) [µg/mL] | CC50 at 72 h [2] [µg/mL] | LTS, Long Term survivors (ascites Sarcoma 180; 0.5 mg./kg. i.p. at day 1) | T/C, median survival time as % over controls (ascites Sarcoma 180; 0.5 mg./kg.) [%] | LTS, Long Term survivors (ascites Sarcoma 180; 1 mg./kg. i.p. at day 1) | T/C, median survival time as % over controls (ascites Sarcoma 180; 1 mg./kg.) [%] | LTS, Long Term survivors (ascites Sarcoma 180; 2 mg./kg. i.p. at day 1) | T/C, median survival time as % over controls (ascites Sarcoma 180; 2 mg./kg.) [%] | T/C, median survival time as % over controls (ascites Sarcoma 180; 5 mg./kg.) [%] | Toxicity, number of mice which died as a result of the toxic effects of the compound ([3]; 5 mg./kg. i.p. at day 1) | LTS, Long Term survivors (ascites Sarcoma 180; 10 mg./kg. i.p. at day 1) | T/C, median survival time as % over controls (ascites Sarcoma 180; 10 mg./kg.) [%] | further results |
| --- | --- | --- | --- | --- | --- | --- | --- | --- | --- | --- | --- | --- | --- | --- | --- | --- |
| COc1cccc2c1C(=O)c1c(O)c3c(c(O)c1C2=O)C[C@@](O)(C(C)=O)C[C@@H]3O[C@H]1C[C@H](N)[C@H](O)[C@H](C)O1 [Daunomycin, daunomycin] | 0.03 (≈ 0.0569 µM) | 0.013 (≈ 0.0246 µM) | 0.003 (≈ 0.00569 µM) | 0.0055 (≈ 0.0104 µM) | 0.009 (≈ 0.0171 µM) | 3/20 | 146 | 8/55 | 172 | 11/68 | 192 | 176 | 14/50 |  |  | T/C, median survival time as % over controls (ascites Sarcoma 180; 8 mg./kg.): 78%; Toxicity, number of mice which died as a result of the toxic effects of the compound ([3]; 8 mg./kg. i.p. at day 1): 7/10 |
| COc1cccc2c1C(=O)c1c(O)c3c(c(O)c1C2=O)C[C@@](O)(C(=O)CO)C[C@@H]3O[C@H]1C[C@H](N)[C@H](O)[C@H](C)O1 [Adriamycin, adriamycin] | 0.28 (≈ 0.515 µM) | 0.11 (≈ 0.202 µM) | 0.018 (≈ 0.0331 µM) | 0.0025 (≈ 0.0046 µM) | 0.007 (≈ 0.0129 µM) | 1/10 | 142 | 25/159 | 183 | 30/125 | 210 | 243 | 7/125 | 18/139 | 212 | LTS, Long Term survivors (ascites Sarcoma 180; 5 mg./kg. i.p. at day 1): 27/125; Toxicity, number of mice which died as a result of the toxic effects of the compound ([3]; 10 mg./kg. i.p. at day 1): 18/139 |
| COc1cccc2c1C(=O)c1c(O)c3c(c(O)c1C2=O)C[C@@](O)(C(=O)CO)C[C@@H]3O[C@H]1C[C@H](N)[C@@H](O)[C@H](CO)O1 [4'-epi-6'-hydroxyadriamycin] | 0.9 (≈ 1.61 µM) | 1 (≈ 1.79 µM) | 1 (≈ 1.79 µM) | 0.025 (≈ 0.0447 µM) | 0.05 (≈ 0.0894 µM) |  |  |  |  |  |  |  |  | 2/10 | 162 | LTS, Long Term survivors (ascites Sarcoma 180; 7.5 mg./kg. i.p. at day 1): 1/10; T/C, median survival time as % over controls (ascites Sarcoma 180; 7.5 mg./kg.): 143%; LTS, Long Term survivors (ascites Sarcoma 180; 15 mg./kg. i.p. at day 1): 2/10; T/C, median survival time as % over controls (ascites Sarcoma 180; 15 mg./kg.): 134%; Toxicity (in words) ([3]; 15 mg./kg. i.p. at day 1): not toxic |
| COc1cccc2c1C(=O)c1c(O)c3c(c(O)c1C2=O)C[C@@](O)(C(C)=O)C[C@@H]3O[C@H]1C[C@H](N)[C@@H](O)[C@H](CO)O1 [4'-epi-6'-hydroxydaunomycin] |  |  |  |  | 0.25 (≈ 0.46 µM) |  |  |  |  |  | 100 |  |  |  | 167 | IC50 (HeLa cells; time of exposure 2 hours): > 10 µg/mL; IC50 (HeLa cells; time of exposure 8 hours): > 10 µg/mL; IC50 (HeLa cells; time of exposure 24 hours): 1.3 µg/mL (≈ 2.39 µM); decrease of activity as compared to parent compound (HeLa cells; in vitro systems tested (HeLa cells, MSV foci, MEF proliferation), compared with 4'-epi-6'-hydroxyadriamycin versus adriamycin): The decrease of activity was higher; IC50 ([1]; time of exposure 72 hours): 0.1 µg/mL (≈ 0.184 µM); T/C, median survival time as % over controls (ascites Sarcoma 180; 50 mg./kg.): 137%; Toxicity, number of mice which died as a result of the toxic effects of the compound ([3]; 50 mg./kg. i.p. at day 1): 1/10 |
